pIC50: −log10 of the molar value.
Target: full-length human PRMT6 (Flag- and His-tagged) (Homo sapiens, UniProt Q96LA8)
Assay: PRMT6 biochemical assay (3H-SAM Flashplate, histone H4 36-50 K44me1 peptide)
Conditions: 1 nM PRMT6, 30 min preincubation, 75 nM peptide
Outline: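 Flag/His-tagged full-length PRMT6 (1 nM) pre-incubated 30 min RT with compound in 20 mM Bicine pH 7.6, then given 200 nM 3H-SAM, 250 nM cold SAM and 75 nM biotinylated H4 36-50 K44me1 peptide. Methylated peptide captured on streptavidin Flashplates and counted; % inhibition versus DMSO and 1 mM SAH controls, fitted to 3- or 4-parameter curves.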

Sequence of full-length human PRMT6 (Flag- and His-tagged) (Q96LA8 with tags, fused parts or gaps): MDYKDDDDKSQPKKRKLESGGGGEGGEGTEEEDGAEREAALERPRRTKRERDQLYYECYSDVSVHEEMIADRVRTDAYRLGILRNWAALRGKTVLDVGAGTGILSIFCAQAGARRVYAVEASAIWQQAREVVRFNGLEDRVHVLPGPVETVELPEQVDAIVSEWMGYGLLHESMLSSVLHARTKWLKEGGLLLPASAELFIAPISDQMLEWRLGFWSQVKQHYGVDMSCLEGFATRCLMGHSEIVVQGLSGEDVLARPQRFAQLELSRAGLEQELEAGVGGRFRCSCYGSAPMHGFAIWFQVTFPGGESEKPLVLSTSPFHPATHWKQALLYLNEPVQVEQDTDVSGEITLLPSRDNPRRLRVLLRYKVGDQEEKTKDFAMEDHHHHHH

Structure (SMILES) | pIC50
CC[C@H]1CC[C@@H](c2n[nH]cc2CN(C)CCNC)CC1 [compound 1] | 7.99
CCOCCOCC1(COCCOCC)CCC(c2n[nH]cc2CN(C)CCNC)CC1 [compound 39, N1-((3-(4,4-bis((2-ethoxyethoxy)methyl)cyclohexyl)-1H-pyrazol-4-yl)methyl)-N1,N2-dimethylethane-1,2-diamine] | 7.38
CNCCN(C)Cc1c[nH]nc1C1CCC(COCCC2CCOCC2)(COCCC2CCOCC2)CC1 [compound 40] | 7.43
CNCCN(C)Cc1c[nH]nc1C1CCC(COCC2CC2)(COCC2CC2)CC1 [compound 41, N1-((3-(4,4-bis((cyclopropylmethoxy)methyl)cyclohexyl)-1H-pyrazol-4-yl)methyl)-N1,N2-dimethylethane-1,2-diamine] | 8.16
CN(C)CCN(C)Cc1c[nH]nc1[C@H]1CC[C@@]2(CC1)CC(C)(C)CO2 [compound 42, N1-((3-((5S,8S)-3,3-dimethyl-1-oxaspiro[4.5]decan-8-yl)-1H-pyrazol-4-yl)methyl)-N1,N2,N2-trimethylethane-1,2-diamine] | 7.04
CN(C)CCN(C)Cc1c[nH]nc1[C@H]1CC[C@]2(CC1)CC(C)(C)CO2 [compound 43, N1-((3-((5r,8r)-3,3-dimethyl-1-oxaspiro[4.5]decan-8-yl)-1H-pyrazol-4-yl)methyl)-N1,N2,N2-trimethylethane-1,2-diamine] | 6.54
CNCCN(C)Cc1c[nH]nc1C1CCC(CO)(CO)CC1 [compound 44, (4-(4-((methyl(2-(methylamino)ethyl)amino)methyl)-1H-pyrazol-3-yl)cyclohexane-1,1-diyl)dimethanol] | 7.67
CNCCN(C)Cc1c[nH]nc1C1CCC(COC)(COCC2CCOCC2)CC1 (stereo not drawn) [compound 45] | 7.27
CNCCN(C)Cc1c[nH]nc1C1=CCC2(CC1)CC(C)(C)CO2 (stereo not drawn) [compound 46, N1-((3-(3,3-dimethyl-1-oxaspiro[4.5]dec-7-en-8-yl)-1H-pyrazol-4-yl)methyl)-N1,N2-dimethylethane-1,2-diamine] | 7.22
CCC1(CC)C[C@]2(CC[C@H](c3n[nH]cc3CN(C)CCNC)CC2)NC1=O [compound 47, (5s,8s)-3,3-diethyl-8-(4-((methyl(2-(methylamino)ethyl)amino)methyl)-1H-pyrazol-3-yl)-1-azaspiro[4.5]decan-2-one] | 7.80
CCC1(CC)C[C@]2(CC[C@@H](c3n[nH]cc3CN(C)CCNC)CC2)NC1=O [compound 48, (5r,8r)-3,3-diethyl-8-(4-((methyl(2-(methylamino)ethyl)amino)methyl)-1H-pyrazol-3-yl)-1-azaspiro[4.5]decan-2-one] | 7.13
CNCCN(C)Cc1ccnn1[C@H]1CC[C@@]2(CC1)CC(C)(C)CO2 [compound 49, N1-((1-((5s,8s)-3,3-dimethyl-1-oxaspiro[4.5]decan-8-yl)-1H-pyrazol-5-yl)methyl)-N1,N2-dimethylethane-1,2-diamine] | 6.89

— patent publication US20170291905A1, “ARGININE […] INHIBITORS AND USES THEREOF” (Epizyme, Inc., priority 2014, published 2017)
